Test results from PMC10787358 (Science translational medicine, 2023).
Entries after “also recorded” stand apart in the source; their conditions may differ. Residues, ends and D or L forms follow the SMILES beside them. *: point of attachment. Cbz = O=C(OCc1ccccc1)*

How the values were obtained:
SARS-CoV PLpro = details: cited from earlier work
USP2 = USP2 (Homo sapiens, UniProt O75604); test: In vitro USP2 activity assay; format: biochemical
SARS-CoV-2 PLpro [1] = test: PLpro-dependent ACE2 deubiquitination and ACE2 abundance in cells; format: cell-based
ACE2 protein = test: Immunoblot of ACE2 protein abundance in cell lines; format: cell-based, human; details: for reduction of ACE2 protein abundance: Calu-3, HepG2 and H1650 cells, 48 h
SARS-CoV-2 WT [2] = test: TCID50 assay, authentic SARS-CoV-2 WT in pretreated Calu-3 cells; format: cell-based; details: Calu-3 cells pretreated 48 h, MOI 0.01, TCID50 over time
hCoV-NL63 = test: Cytopathic effect; format: cell-based; details: CPE assay; for inhibition of hCoV-NL63 infection: ACE2-dependent coronavirus
hCoV-OC43 [3] = test: Cytopathic effect; format: cell-based; details: CPE assay, ACE2-independent strain
hCoV-OC43 [4] = test: RT-qPCR of hCoV-OC43 in Huh7 cells; format: cell-based; details: Huh7 cells preinfected MOI 2 for 24 h, ML364 4 or 10 μM for 48 h
SARS-CoV-2 PLpro [5] = target: SARS-CoV-2 PLpro (Severe acute respiratory syndrome coronavirus 2, UniProt P0DTD1); test: SARS-CoV-2 PLpro enzymatic activity assay; format: biochemical; details: in vitro
MERS-CoV pseudotype = format: cell-based
pseudotyped SARS-CoV-2 = format: cell-based; details: for pseudotype entry of SARS-CoV-2 after 48 h pretreatment: ML364 5 μM, UDCA plus ZGG 10 μM, Calu-3, HepG2, H1650
[6] = system: ACE2-dependent bat sarbecoviruses; format: cell-based
C57BL/6 mice = test: 2-week tolerability study in male C57BL/6 mice; format: in vivo, mouse
SARS-CoV-2 WT [7] = format: in vivo, K18-hACE2 transgenic mice; details: 50 mg/kg daily
SARS-CoV-2 = format: in vivo, K18-hACE2 transgenic mice
cyclin D1 / cell cycle = test: TMT-based quantitative proteomic analysis and cell cycle analysis; parameters: species or system human
[8] = system: SARS-CoV-2 Omicron BA.2 sublineage; parameters: species or system K18-hACE2 transgenic mice; details: mouse, in vivo
SARS-CoV-2 WT [9] = test: TCID50 assay, SARS-CoV-2 WT in NHBE cells; format: cell-based; details: preinfected MOI 0.01 for 1 h, 10 μM, 48 h
[10] = 50 mg/kg once a day or 35 mg/kg twice a day, 2 weeks

Sequence of USP2 (O75604 whole entry): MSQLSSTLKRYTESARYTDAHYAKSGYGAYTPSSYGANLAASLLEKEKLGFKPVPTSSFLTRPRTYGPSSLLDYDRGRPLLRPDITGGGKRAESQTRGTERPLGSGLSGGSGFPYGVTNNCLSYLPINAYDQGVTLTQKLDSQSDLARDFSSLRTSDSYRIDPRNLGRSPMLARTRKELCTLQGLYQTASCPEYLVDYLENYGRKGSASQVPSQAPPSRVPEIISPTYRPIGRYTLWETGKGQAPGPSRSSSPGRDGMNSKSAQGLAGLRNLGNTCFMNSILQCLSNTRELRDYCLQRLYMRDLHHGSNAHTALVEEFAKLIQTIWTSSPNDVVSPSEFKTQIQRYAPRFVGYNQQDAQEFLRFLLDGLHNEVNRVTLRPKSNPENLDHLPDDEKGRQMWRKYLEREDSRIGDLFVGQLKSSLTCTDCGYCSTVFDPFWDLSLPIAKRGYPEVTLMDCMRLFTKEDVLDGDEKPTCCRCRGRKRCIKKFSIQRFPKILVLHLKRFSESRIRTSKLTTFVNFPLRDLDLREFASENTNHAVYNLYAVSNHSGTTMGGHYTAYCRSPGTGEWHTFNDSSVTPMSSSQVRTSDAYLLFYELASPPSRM

Q: For `S=c1nc[nH]c2nc[nH]c12` [6MP], which “SARS-CoV PLpro protease activity” value (SARS-CoV PLpro) is on record?
A: The value was “inhibit”.

Q: Which “SARS-CoV PLpro protease activity” value (SARS-CoV PLpro) does the source give for `Nc1nc2[nH]cnc2c(=S)[nH]1` [6TG] here?
A: Its value is “inhibit”.

Q: Which “activity toward USP2” value (USP2; even at 100 μM) does the source give for `Cc1ccc(N)cc1C(=O)N[C@H](C)c1cccc2ccccc12` [GRL0617] here?
A: Its value is “no obvious activity”.

Q: What about the “infection-induced reduction of ACE2” value (SARS-CoV-2 PLpro [1]) of the same compound?
A: The value was “failed to prevent the infection-induced reduction of ACE2”.

Q: And the “PLpro-induced ACE2 deubiquitination” value (SARS-CoV-2 PLpro [1]; in cells)?
A: Its value is “diminished PLpro-induced ACE2 deubiquitination”.

Q: Which ACE2 protein accumulation (ACE2 protein; HepG2 cells with cycloheximide) does the source give for `CC(C)C[C@@H](C=O)NC(=O)[C@H](CC(C)C)NC(=O)[C@H](CC(C)C)NC(=O)OCc1ccccc1` [MG132] (Cbz-Leu-Leu-Leu-aldehyde) here?
A: The ACE2 protein accumulation was “noticeable ACE2 protein accumulation”.

Q: With `Cc1ccc(S(=O)(=O)Nc2cc(C(F)(F)F)ccc2C(=O)Nc2nc(-c3ccccc3)cs2)cc1` [ML364] as the compound, how does the “viral replication of SARS-CoV-2 WT” value (SARS-CoV-2 WT [2]) read?
A: Its value is “obvious reduction”.

Q: And the “inhibition of hCoV-NL63 infection” value (hCoV-NL63)?
A: The value was “effective”.

Q: And the IC50 (hCoV-NL63; read-out: IC50 against hCoV-NL63)?
A: The IC50 was ~180 nM.

Q: And the “inhibition of hCoV-OC43 infection” value (hCoV-OC43 [3])?
A: Its value is “limited or no activity”.

Q: And the “activity against hCoV-OC43” value (hCoV-OC43 [4])?
A: Its value is “did not observe any activity”.

Q: And the “reduction of ACE2 protein abundance” value (ACE2 protein)?
A: Its value is “reductions in ACE2 protein in all three cell lines”.

Q: And the “ACE2 protein abundance decrease” value (ACE2 protein; HepG2, 10 μM, within 12 hours of treatment)?
A: The value was 50%.

Q: And the “inhibition of USP2 activity” value (USP2)?
A: Its value is “inhibited USP2 activity”.

Q: And the “inhibition of SARS-CoV-2 PLpro” value (SARS-CoV-2 PLpro [5])?
A: The value was “inhibitory effects”.

Q: And the “entry of MERS-CoV pseudotype” value (MERS-CoV pseudotype)?
A: The value was “did not prevent the entry”.

Q: What about the “SARS-CoV-2 pseudovirus entry into cells” value (pseudotyped SARS-CoV-2; HepG2, ML364 5 μM) of the same compound?
A: The value was “obvious reduction”.

Q: What about the “pseudotype entry of SARS-CoV-2 after 48 h pretreatment” value (pseudotyped SARS-CoV-2) of the same compound?
A: Its value is “prevented the pseudotype entry”.

Q: What about the “pseudotype entry of ACE2-dependent bat sarbecoviruses” value [6] of the same compound?
A: Its value is “promising activity”.

Q: What about the clinical signs (C57BL/6 mice; [10]) of the same compound?
A: Its clinical signs is “healthy without any clinical signs”.

Q: And the “plasma angiotensin-(1-7) concentration” value (C57BL/6 mice; [10])?
A: The value was “did not lead to any noticeable reduction”.

Q: And the “ACE2 protein abundance in mouse tissues” value (C57BL/6 mice; pancreas, small intestine and lung of C57BL/6 mice)?
A: The value was “reduced abundance of ACE2 protein”.

Q: What about the “ACE2 protein abundance in the lungs” value (SARS-CoV-2 WT [7]) of the same compound?
A: Its value is “significantly (P = 0.01) reduced”.

Q: And the “viral loads in the lungs” value (SARS-CoV-2 WT [7]; 4 days before 6-day challenge)?
A: The value was “significant (P = 3.6 × 10^−6) decrease”.

Q: And the “lung pathology (H&E)” value (SARS-CoV-2 WT [7]; versus vehicle)?
A: The value was “reduction in overall lung pathology”.

Q: What about the “viral titers and SARS-CoV-2 E gene in lungs and small intestines” value (SARS-CoV-2; administration 6 hours after infection) of the same compound?
A: Its value is “decrease in viral titers”.

Q: What about the lung pathology (SARS-CoV-2; administration 6 hours after infection, versus vehicle) of the same compound?
A: Its lung pathology is “improved lung pathology”.

Q: What about the cell cycle effect (cyclin D1 / cell cycle) of the same compound?
A: The cell cycle effect was “primarily cell cycle arrest”.

Q: What about the “cyclin D1 protein (TMT)” value (cyclin D1 / cell cycle; TMT-based proteomics) of the same compound?
A: The value was “significant (P = 3.3 × 10^−6) decrease”.

Q: What about the “time of peak plasma concentration” value (single intraperitoneal dose, male C57BL/6 mice) of the same compound?
A: Its value is 30 min.

Q: And the “cytotoxicity by LDH release” value (HepG2 and Calu-3 cells)?
A: Its value is “minimal cytotoxicity”.

Q: Which results are given for `Cc1ccc(S(=O)(=O)Nc2ccc(C(F)(F)F)cc2C(=O)Nc2nc(-c3ccc(Br)cc3)cs2)cc1` [MS102]?
A: inhibition of hCoV-NL63 infection (hCoV-NL63): effective; inhibition of hCoV-OC43 infection (hCoV-OC43 [3]): limited or no activity; inhibition of USP2 activity (USP2): slightly enhanced activity; entry of ACE2-dependent pseudotypes compared with ML364 (pseudotyped SARS-CoV-2; HepG2, 5 μM, 24 h pretreatment): enhanced activity; therapeutic efficacy (TCID50, lung pathology) compared with ML364 (SARS-CoV-2; mouse, in vivo): enhanced efficacy compared with ML364; survival extension versus vehicle-treated control [8]: 3 days; blocking infection of NHBE cells compared with ML364 (SARS-CoV-2 WT [9]): improved efficacy; peak plasma concentration relative to ML364 (C57BL/6 mice): approximately threefold; plasma concentration 24 hours after administration relative to ML364 (C57BL/6 mice): approximately 2500 times; oral bioavailability (male C57BL/6 mice, p.o. 50 mg/kg, i.v. 5 mg/kg): ~100%; cytotoxicity by LDH release (HepG2 and Calu-3 cells): minimal cytotoxicity

Q: Which “reduction of ACE2 protein abundance” value (ACE2 protein) does the source give for `CC(O)c1cc(C(=O)N[C@@H](C)Cn2ccc(-c3ccc(C#N)c(Cl)c3)n2)[nH]n1` (some centres unmarked) [ODM-201] here?
A: The value was “mild efficacy”.

Q: With `C[C@H](CCC(=O)O)[C@H]1CC[C@H]2[C@@H]3[C@@H](O)C[C@@H]4C[C@H](O)CC[C@]4(C)[C@H]3CC[C@]12C` [UDCA, ursodeoxycholic acid] as the compound, how does the “inhibition of hCoV-NL63 infection” value (hCoV-NL63) read?
A: The value was “no inhibitory activity”.

Q: And the “inhibition of hCoV-OC43 infection” value (hCoV-OC43 [3])?
A: The value was “no inhibitory activity”.

Q: What about the “reduction of ACE2 protein abundance” value (ACE2 protein) of the same compound?
A: The value was “only mildly reduced ACE2 protein”.

Q: And the “pseudotype entry of SARS-CoV-2 after 48 h pretreatment” value (pseudotyped SARS-CoV-2)?
A: Its value is “only showed mild effects; also recorded: mild effect”.

Q: Which “pseudotype entry of SARS-CoV-2 after 48 h pretreatment” value (pseudotyped SARS-CoV-2) does the source give for `C/C=C1\C(=O)C[C@H]2[C@@H]3CCC4=CC(=O)CC[C@]4(C)[C@H]3CC[C@]12C` [ZGG, z-guggulsterone] here?
A: The value was “only showed mild effects”.

Q: With `CCC(CC)COC(=O)[C@H](C)N[P@](=O)(OC[C@H]1O[C@@](C#N)(c2ccc3c(N)ncnn23)[C@H](O)[C@@H]1O)Oc1ccccc1` [remdesivir] as the compound, how does the “inhibition of hCoV-NL63 infection” value (hCoV-NL63) read?
A: The value was “active”.

Q: What about the “inhibition of hCoV-OC43 infection” value (hCoV-OC43 [3]) of the same compound?
A: The value was “active”.
